Test results as given in PMC8882856, “The affinity and selectivity of α‐adrenoceptor antagonists, antidepressants and antipsychotics for the human α2A, α2B, and α2C‐adrenoceptors and comparison with human α1 and β‐adrenoceptors” (Pharmacology Research & Perspectives, 2022).
Read-outs that look alike come from different tables or passages of the source.

Tests used:
human α2B‐adrenoceptor [1] = target: T1, human α2B‐adrenoceptor (Homo sapiens, UniProt P18089)
T1 sequence (P18089 1-450): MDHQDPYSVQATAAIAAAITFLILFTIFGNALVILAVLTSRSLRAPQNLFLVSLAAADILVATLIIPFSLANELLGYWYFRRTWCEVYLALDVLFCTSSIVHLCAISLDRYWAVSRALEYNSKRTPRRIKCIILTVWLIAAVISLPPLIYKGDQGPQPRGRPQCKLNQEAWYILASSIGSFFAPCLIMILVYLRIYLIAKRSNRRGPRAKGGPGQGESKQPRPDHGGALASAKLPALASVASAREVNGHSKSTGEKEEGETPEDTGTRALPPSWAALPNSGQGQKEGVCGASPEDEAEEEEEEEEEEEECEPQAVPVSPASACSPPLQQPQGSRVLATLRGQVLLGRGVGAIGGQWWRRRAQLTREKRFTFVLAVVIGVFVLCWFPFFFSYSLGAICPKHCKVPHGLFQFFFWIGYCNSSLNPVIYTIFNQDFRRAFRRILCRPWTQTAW

human β2‐adrenoceptor = human β2‐adrenoceptor (Homo sapiens, UniProt P07550); assay type: binding; conditions: for IC50 (log) β2, IC50>top concentration used / IC50: ^3H‐CGP12177, log value; for IC50: read-out: IC50 (log) β2, IC50>top concentration used (converted)
human α2C‐adrenoceptor [2] = target: T2, human α2C‐adrenoceptor (Homo sapiens, UniProt P18825)
T2 sequence (P18825 1-462): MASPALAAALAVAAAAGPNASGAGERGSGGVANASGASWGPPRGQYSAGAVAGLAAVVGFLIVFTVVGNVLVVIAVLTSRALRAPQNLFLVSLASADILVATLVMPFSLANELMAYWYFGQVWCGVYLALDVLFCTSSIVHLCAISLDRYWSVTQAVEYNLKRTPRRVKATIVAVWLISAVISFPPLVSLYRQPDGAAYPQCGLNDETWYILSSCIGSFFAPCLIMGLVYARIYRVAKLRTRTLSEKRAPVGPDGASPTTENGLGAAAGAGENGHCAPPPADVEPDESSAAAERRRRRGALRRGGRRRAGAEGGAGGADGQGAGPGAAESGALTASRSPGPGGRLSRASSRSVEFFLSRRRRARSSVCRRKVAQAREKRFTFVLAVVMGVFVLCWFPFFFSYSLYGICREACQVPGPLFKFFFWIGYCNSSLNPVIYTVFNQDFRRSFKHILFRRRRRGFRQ

human α2C‐adrenoceptor [3] = target: T2, human α2C‐adrenoceptor; assay: ^3H‐rauwolscine whole cell competition binding, CHO‐α2C cells; conditions: for Selectivity ratio α2A vs α2C (higher affinity for α2C) / Selectivity ratio α2B vs α2C (higher affinity for α2C): ratio of KD values
human β1‐adrenoceptor [4] = target: T3, human β1‐adrenoceptor (Homo sapiens, UniProt P08588); conditions: for Log KD β1: mean ± s.e.mean; for IC50 (log) β1, IC50>top concentration used: ^3H‐CGP12177, log value
human α2A‐adrenoceptor [5] = target: T4, human α2A‐adrenoceptor (Homo sapiens, UniProt P08913)
T4 sequence (P08913 1-465): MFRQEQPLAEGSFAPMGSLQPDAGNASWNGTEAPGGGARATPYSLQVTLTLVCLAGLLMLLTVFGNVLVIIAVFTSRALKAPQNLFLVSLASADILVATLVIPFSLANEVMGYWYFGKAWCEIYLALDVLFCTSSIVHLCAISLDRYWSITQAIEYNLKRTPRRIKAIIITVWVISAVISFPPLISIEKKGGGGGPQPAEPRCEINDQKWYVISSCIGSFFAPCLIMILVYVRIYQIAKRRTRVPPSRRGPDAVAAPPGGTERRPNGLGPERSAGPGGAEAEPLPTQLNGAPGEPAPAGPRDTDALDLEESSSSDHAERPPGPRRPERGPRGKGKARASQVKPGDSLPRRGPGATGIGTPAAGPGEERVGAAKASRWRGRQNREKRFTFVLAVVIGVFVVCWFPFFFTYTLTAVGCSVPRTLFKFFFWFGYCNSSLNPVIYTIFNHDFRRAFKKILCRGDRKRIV

human α2A‐adrenoceptor [6] = target: T4, human α2A‐adrenoceptor; assay: ^3H‐rauwolscine whole cell competition binding, CHO‐α2A cells; conditions: ratio of KD values
human β1‐adrenoceptor [7] = target: T3, human β1‐adrenoceptor; assay: cell-based
human α2C‐adrenoceptor [8] = target: T2, human α2C‐adrenoceptor; assay: cell-based
human α2B‐adrenoceptor [9] = target: T1, human α2B‐adrenoceptor; assay: cell-based
human α2A‐adrenoceptor [10] = target: T4, human α2A‐adrenoceptor; assay: cell-based
human α1A‐adrenoceptor = target: human α1A‐adrenoceptor; set-up: method as in PMID 32608144; conditions: identical whole cell method; ref [33]; read-out: α1A‐adrenoceptor affinity; cited from earlier work
human α2B‐adrenoceptor [11] = target: T1, human α2B‐adrenoceptor; assay: ^3H‐rauwolscine whole cell competition binding, CHO‐α2B cells; conditions: for Selectivity ratio α2A vs α2B (higher affinity for α2B): ratio of KD values
human α2A‐adrenoceptors = conditions: cited from earlier work
[12] = ^3H‐CGP12177 whole cell binding, log values, mean ± s.e.mean, ^app = apparent KD, 'no binding to' = log top concentration
[13] = ^3H‐CGP12177 whole cell binding, log values, ^app = apparent KD, 'no binding to' = log top concentration
[14] = ^3H‐CGP12177 whole cell binding, log values, mean ± s.e.mean, ^app = apparent KD, 'no binding to' = log top concentration, read-out: Log KD β2 (converted)

T3 sequence (P08588 whole entry): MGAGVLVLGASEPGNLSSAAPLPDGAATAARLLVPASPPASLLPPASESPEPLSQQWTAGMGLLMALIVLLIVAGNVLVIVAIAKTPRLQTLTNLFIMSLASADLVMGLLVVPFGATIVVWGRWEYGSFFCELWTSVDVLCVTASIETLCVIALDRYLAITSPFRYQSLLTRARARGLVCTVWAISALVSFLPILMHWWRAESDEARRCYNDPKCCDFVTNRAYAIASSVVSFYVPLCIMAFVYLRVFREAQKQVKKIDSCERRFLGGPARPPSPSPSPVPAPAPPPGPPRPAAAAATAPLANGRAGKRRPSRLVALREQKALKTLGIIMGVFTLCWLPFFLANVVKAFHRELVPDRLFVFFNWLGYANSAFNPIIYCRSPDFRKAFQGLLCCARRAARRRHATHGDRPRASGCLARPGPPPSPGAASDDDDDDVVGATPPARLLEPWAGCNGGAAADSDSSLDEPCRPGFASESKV
human β2‐adrenoceptor, sequence (P07550 whole entry): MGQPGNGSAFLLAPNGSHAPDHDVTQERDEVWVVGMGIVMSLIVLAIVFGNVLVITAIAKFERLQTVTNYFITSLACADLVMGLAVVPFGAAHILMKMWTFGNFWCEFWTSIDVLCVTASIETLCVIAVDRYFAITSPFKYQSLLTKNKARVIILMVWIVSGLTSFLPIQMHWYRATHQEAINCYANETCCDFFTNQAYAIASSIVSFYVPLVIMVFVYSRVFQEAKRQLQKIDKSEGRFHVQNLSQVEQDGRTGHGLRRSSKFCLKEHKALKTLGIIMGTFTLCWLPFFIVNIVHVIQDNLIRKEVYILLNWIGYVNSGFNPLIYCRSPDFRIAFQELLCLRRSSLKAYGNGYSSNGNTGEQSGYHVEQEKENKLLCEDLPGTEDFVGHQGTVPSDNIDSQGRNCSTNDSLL

Row | Kd (human α2B‐adrenoceptor [1]) [nM] | Kd (human α2C‐adrenoceptor [2]) [nM] | Selectivity ratio α2A vs α2C (higher affinity for α2C) (human α2C‐adrenoceptor [3]) | Selectivity ratio α2B vs α2C (higher affinity for α2C) (human α2C‐adrenoceptor [3]) | Kd (human α2A‐adrenoceptor [5]) [nM] | Selectivity ratio α2A vs α2B (higher affinity for α2A) (human α2A‐adrenoceptor [6]) | IC50 (human β1‐adrenoceptor [7]) [µM] | Kd (human α2C‐adrenoceptor [8]) [nM] | Kd (human α2A‐adrenoceptor [10]) [µM] | SMILES | also measured
1 | 302 | 34.7 | – | – | – | – | – | – | – | COc1cccc2c1CCC[C@H]2CN(C)CCc1ccc2ccoc2c1.CS(=O)(=O)O [A80426] | Log KD β2 (human β2‐adrenoceptor; [12]): −5.88 ± 0.04
2 | 2.69 | 0.437 | 2.7 | 6.2 | 1.17 | 2.3 | – | – | – | CCS(=O)(=O)N1CCC[C@@H]2CN3CCc4cc(OC)ccc4[C@@H]3C[C@@H]21 [RS79948] | Log KD β1 (human β1‐adrenoceptor [4]; [13]): −3.84 ± 0.05; IC50 (log) β2, IC50>top concentration used (human β2‐adrenoceptor): IC50>−3
3 | – | – | 6.8 | 28.8 | – | 4.3 | > 1000 | 7.76 | 0.0525 | O=C1CCC(=O)N1C[C@H]1CC[C@H]2CN(c3ncccn3)CCN2C1 [sunepitron] | IC50 (human β2‐adrenoceptor): > 1000 µM; Kd (human α2B‐adrenoceptor [9]): 224 nM
4 | 339 | 15.1 | 6.6 | 22.4 | 100 | 3.4 | – | – | – | Cc1c[nH]c(=O)n(CCCN2CCN(c3ccccc3OCC(F)(F)F)CC2)c1=O [RS100329] | IC50 (log) β1, IC50>top concentration used (human β1‐adrenoceptor [4]): IC50>−3; Log KD β2 (human β2‐adrenoceptor; [12]): −4.77 ± 0.07
5 | 19.1 | 8.91 | 4.0 | 2.1 | 35.5 | – | – | – | – | O=C1c2ccccc2CCC1CNCCc1ccc(O)cc1 (centres unmarked) [HEAT] | IC50 (log) β1, IC50>top concentration used (human β1‐adrenoceptor [4]): IC50 ~−4.5; Selectivity ratio α2A vs α2B (higher affinity for α2B) (human α2B‐adrenoceptor [11]): 1.9; IC50 (log) β2, IC50>top concentration used (human β2‐adrenoceptor): IC50>−4
6 | – | – | – | – | – | – | > 31.6 | – | – | Cc1nc2n(c(=O)c1CCN1CCC(c3noc4cc(F)ccc34)CC1)CCCC2O (centres unmarked) [paliperidone] | Kd (human α2C‐adrenoceptor [3]): 14 nM; Kd (human α1A‐adrenoceptor): 4 nM; IC50 (human β2‐adrenoceptor): > 31.6 µM
7 | – | – | – | – | – | – | – | – | – | COc1cc2nc(N3CCN(C(=O)c4ccco4)CC3)nc(N)c2cc1OC [prazosin] | Log KD β1 (human β1‐adrenoceptor [4]; [13]): No binding to −4; Log KD β1 (human β1‐adrenoceptor [4]; given as log KD (negative values), 3H-CGP12177 whole cell binding, CHO cells): No binding to -4; Kd (human α2A‐adrenoceptors; ref [6], read-out: affinity at human α2A‐adrenoceptors): 16000 nM; Kd (human α2A‐adrenoceptors; ref [21], [28], read-out: affinity at human α2A‐adrenoceptors): 300 nM; Kd (human β2‐adrenoceptor; [14]): 7.94 µM
8 | – | – | – | – | – | – | – | – | – | CN1CCN2c3ncccc3Cc3ccccc3C2C1 (centres unmarked) [mirtazepine] | Kd (human α2A‐adrenoceptors; ref [51], read-out: affinity at human α2A receptors): 79 to 126 nM
9 | – | – | 4.7 | 2.2 | – | – | – | 1580 | 7.41 | O=C(NC1CCN(CCc2c[nH]c3ccccc23)CC1)c1ccccc1 [indoramin] | Kd (human β1‐adrenoceptor [7]): 18.6 µM; Selectivity ratio α2A vs α2B (higher affinity for α2B) (human α2B‐adrenoceptor [11]): 2.1; Kd (human β2‐adrenoceptor; [14]): 5.37 µM; Kd (human α2B‐adrenoceptor [9]): 3470 nM

Row | SMILES | Kd (human α2B‐adrenoceptor [1]) [nM] | Kd (human α2C‐adrenoceptor [2]) [nM] | Selectivity ratio α2A vs α2C (higher affinity for α2C) (human α2C‐adrenoceptor [3]) | Selectivity ratio α2B vs α2C (higher affinity for α2C) (human α2C‐adrenoceptor [3]) | Kd (human α2A‐adrenoceptor [5]) [nM] | Selectivity ratio α2A vs α2B (higher affinity for α2A) (human α2A‐adrenoceptor [6]) | IC50 (human β1‐adrenoceptor [7]) [µM] | Kd (human α2C‐adrenoceptor [8]) [nM] | Kd (human α2A‐adrenoceptor [10]) [µM] | also measured
10 | C[C@H](Cc1cc2c(c(C(N)=O)c1)N(CCCO)CC2)NCCOc1ccccc1OCC(F)(F)F [silodosin] | – | – | – | – | – | – | > 10 | 759 | 3.24 | Kd (human α1A‐adrenoceptor): 0.25 nM; IC50 (human α2B‐adrenoceptor [11]): > 10 µM; Kd (human β2‐adrenoceptor; this study, read-out: β2‐adrenoceptor affinity): ~0.03 µM
